Assay results published in the supplement of paper PMC10307832.

Tests used:
Test in all cases: relative viability (nuclei count vs DMSO), 5 days (fraction); higher = more cells survive
[1] = compound: NC(=O)[C@@H](CCC(F)(F)F)N(Cc1ccc(-c2ncon2)cc1F)S(=O)(=O)c1ccc(Cl)cc1 [Avagacestat] + CC(=O)c1c(C)c2cnc(Nc3ccc(N4CCNCC4)cn3)nc2n(C2CCCC2)c1=O [Palbociclib] (partner 0.5 µM)
Summary of the method: (§1)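 Values are medians from duplicate plates. Each reflects relative viability, defined as the nuclei count of treated wells over that of vehicle wells. Lung cancer cell lines in 1536-well plates were pin-tool dosed one day after seeding with one drug alone or with a fixed anchor-drug dose plus five library-drug doses (not always all listed) in √10 steps, then fixed, stained and imaged at 4× after 5 days.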

Avagacestat + Pictilisib = compound: NC(=O)[C@@H](CCC(F)(F)F)N(Cc1ccc(-c2ncon2)cc1F)S(=O)(=O)c1ccc(Cl)cc1 [Avagacestat] + CS(=O)(=O)N1CCN(Cc2cc3nc(-c4cccc5[nH]ncc45)nc(N4CCOCC4)c3s2)CC1 [Pictilisib] (partner 1 µM)
Summary of the method: as §1

Avagacestat + Phenformin = compound: NC(=O)[C@@H](CCC(F)(F)F)N(Cc1ccc(-c2ncon2)cc1F)S(=O)(=O)c1ccc(Cl)cc1 [Avagacestat] + N=C(N)NC(=N)NCCc1ccccc1 [Phenformin] (partner 250 µM)
Summary of the method: as §1

Avagacestat + Decitabine = compound: NC(=O)[C@@H](CCC(F)(F)F)N(Cc1ccc(-c2ncon2)cc1F)S(=O)(=O)c1ccc(Cl)cc1 [Avagacestat] + Nc1ncn([C@H]2C[C@H](O)[C@@H](CO)O2)c(=O)n1 [Decitabine] (partner 2 µM)
Summary of the method: as §1

Row | Cell Line | relative viability ([1]; first compound 0.08 µM) | relative viability ([1]; first compound 0.253 µM) | relative viability ([1]; first compound 0.8 µM) | relative viability ([1]; first compound 2.53 µM) | relative viability ([1]; first compound 8 µM) | relative viability (Avagacestat + Pictilisib; first compound 0.08 µM) | relative viability (Avagacestat + Pictilisib; first compound 0.253 µM) | relative viability (Avagacestat + Pictilisib; first compound 0.8 µM) | relative viability (Avagacestat + Pictilisib; first compound 2.53 µM) | relative viability (Avagacestat + Pictilisib; first compound 8 µM) | relative viability (Avagacestat + Phenformin; first compound 0.08 µM) | relative viability (Avagacestat + Phenformin; first compound 0.253 µM) | relative viability (Avagacestat + Phenformin; first compound 0.8 µM) | relative viability (Avagacestat + Phenformin; first compound 2.53 µM) | relative viability (Avagacestat + Phenformin; first compound 8 µM) | relative viability (Avagacestat + Decitabine; first compound 0.08 µM) | relative viability (Avagacestat + Decitabine; first compound 0.253 µM) | relative viability (Avagacestat + Decitabine; first compound 0.8 µM) | relative viability (Avagacestat + Decitabine; first compound 2.53 µM) | relative viability (Avagacestat + Decitabine; first compound 8 µM)
1 | NCI-H1666 | 0.69 | 0.699 | 0.642 | 0.714 | 0.644 | 0.416 | 0.445 | 0.499 | 0.48 | 0.49 | 0.686 | 0.639 | 0.619 | 0.603 | 0.603 | 0.892 | 0.858 | 0.953 | 0.81 | 0.882
2 | NCI-H1915 | 0.513 | 0.522 | 0.477 | 0.502 | 0.519 | 0.962 | 1.05 | 0.949 | 1 | 0.93 | 0.396 | 0.396 | 0.368 | 0.412 | 0.357 | 0.259 | 0.266 | 0.283 | 0.237 | 0.265
3 | NCI-H2085 | 0.464 | 0.469 | 0.478 | 0.468 | 0.511 | 0.543 | 0.461 | 0.518 | 0.501 | 0.46 | 0.85 | 0.756 | 0.726 | 0.862 | 0.729 | 0.531 | 0.609 | 0.639 | 0.572 | 0.585
4 | COR-L 105 | 0.435 | 0.353 | 0.429 | 0.391 | 0.4 | 0.38 | 0.447 | 0.326 | 0.319 | 0.419 | 0.534 | 0.407 | 0.448 | 0.397 | 0.429 | 0.665 | 0.734 | 0.642 | 0.595 | 0.558
5 | NCI-H1755 | 0.444 | 0.438 | 0.492 | 0.389 | 0.463 | 0.487 | 0.445 | 0.445 | 0.428 | 0.367 | 0.714 | 0.652 | 0.655 | 0.623 | 0.577 | 0.732 | 0.665 | 0.755 | 0.718 | 0.72
6 | NCI-H322M | 0.456 | 0.442 | 0.455 | 0.419 | 0.531 | 0.503 | 0.487 | 0.478 | 0.441 | 0.415 | 0.733 | 0.748 | 0.712 | 0.69 | 0.65 | 0.736 | 0.626 | 0.729 | 0.629 | 0.611
7 | HCC-827 | 0.468 | 0.478 | 0.503 | 0.442 | 0.465 | 1.13 | 1.08 | 0.797 | 0.941 | 0.897 | 0.478 | 0.397 | 0.509 | 0.405 | 0.35 | 0.328 | 0.313 | 0.327 | 0.329 | 0.296
8 | NCI-H2087 | 0.228 | 0.181 | 0.276 | 0.223 | 0.231 | 0.905 | 1.04 | 1.27 | 0.896 | 0.955 | 0.535 | 0.561 | 0.548 | 0.467 | 0.441 | 0.3 | 0.279 | 0.374 | 0.25 | 0.257
